Like-named read-outs stand apart in the source and are kept apart here.
System: test plant species
Assay: Post-emergent herbicidal activity test (greenhouse, foliar spray, visual growth reduction)
Type: in vivo
Settings: post-emergence, 336 h, 140 g ai/ha
Procedure, shortened: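 Visual percent injury (0-100) rated 14 d after treatment, relative to nontreated and solvent-blank plants. Test plants at first or second true leaf stage received an overhead track-sprayer application at 187 L/ha. Compounds were formulated in aqueous acetone/DMSO carrier containing crop oil concentrate and X-77 surfactant.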

[1] = ALOMY: blackgrass (Alopecurus myosuroides), 14 days after application, read-out: Visual Growth Reduction (%) 14 Days After Application, ALOMY
[2] = AMARE: redroot pigweed (Amaranthus retroflexus), 14 days after application, read-out: Visual Growth Reduction (%) 14 Days After Application, AMARE
[3] = AVEFA: wild oat (Avena fatua), 14 days after application, read-out: Visual Growth Reduction (%) 14 Days After Application, AVEFA
[4] = CHEAL: lambsquarters (Chenopodium album), 14 days after application, read-out: Visual Growth Reduction (%) 14 Days After Application, CHEAL
[5] = CIRAR: canada thistle (Cirsium arvense), 14 days after application, read-out: Visual Growth Reduction (%) 14 Days After Application, CIRAR
[6] = CYPES: yellow nutsedge (Cyperus esculentus), 14 days after application, read-out: Visual Growth Reduction (%) 14 Days After Application, CYPES
[7] = DIGSA: crabgrass (Digitaria sanguinalis), 14 days after application, read-out: Visual Growth Reduction (%) 14 Days After Application, DIGSA
[8] = ECHCG: barnyardgrass (Echinochloa crus-galli), 14 days after application, read-out: Visual Growth Reduction (%) 14 Days After Application, ECHCG
[9] = IPOHE: ivy-leaf morning glory (Ipomoea hederacea), 14 days after application, read-out: Visual Growth Reduction (%) 14 Days After Application, IPOHE
[10] = KCHSC: kochia (Bassia scoparia), 14 days after application, read-out: Visual Growth Reduction (%) 14 Days After Application, KCHSC
[11] = ORYSA: rice (Oryza sativa), 14 days after application, read-out: Visual Growth Reduction (%) 14 Days After Application, ORYSA
[12] = SETFA: giant foxtail (Setaria faberi), 14 days after application, read-out: Visual Growth Reduction (%) 14 Days After Application, SETFA
[13] = SORVU: grain sorghum (Sorghum vulgare), 14 days after application, read-out: Visual Growth Reduction (%) 14 Days After Application, SORVU
[14] = STEME: common chickweed (Stellaria media), 14 days after application, read-out: Visual Growth Reduction (%) 14 Days After Application, STEME
[15] = TRZAS: wheat, spring (Triticum aestivum), 14 days after application, read-out: Visual Growth Reduction (%) 14 Days After Application, TRZAS
[16] = blackgrass (Alopecurus myosuroides), 14 Days After Application, read-out: Visual Growth Reduction (%) ALOMY
[17] = canada thistle (Cirsium arvense), 14 Days After Application, read-out: Visual Growth Reduction (%) CIRAR
[18] = crabgrass (Digitaria sanguinalis), 14 Days After Application, read-out: Visual Growth Reduction (%) DIGSA
[19] = lambsquarters (Chenopodium album), 14 Days After Application, read-out: Visual Growth Reduction (%) CHEAL
[20] = redroot pigweed (Amaranthus retroflexus), 14 Days After Application, read-out: Visual Growth Reduction (%) AMARE
[21] = wild oat (Avena fatua), 14 Days After Application, read-out: Visual Growth Reduction (%) AVEFA
[22] = yellow nutsedge (Cyperus esculentus), 14 Days After Application, read-out: Visual Growth Reduction (%) CYPES

SMILES	pest or weed control at 140 g/ha [1] [%]	pest or weed control at 140 g/ha [2] [%]	pest or weed control at 140 g/ha [3] [%]	pest or weed control at 140 g/ha [4] [%]	pest or weed control at 140 g/ha [5] [%]	pest or weed control at 140 g/ha [6] [%]	pest or weed control at 140 g/ha [7] [%]	pest or weed control at 140 g/ha [8] [%]	pest or weed control at 140 g/ha [9] [%]	pest or weed control at 140 g/ha [10] [%]	pest or weed control at 140 g/ha [11] [%]	pest or weed control at 140 g/ha [12] [%]	pest or weed control at 140 g/ha [13] [%]	pest or weed control at 140 g/ha [14] [%]	pest or weed control at 140 g/ha [15] [%]	pest or weed control at 140 g/ha [16] [%]	pest or weed control at 140 g/ha [17] [%]	pest or weed control at 140 g/ha [18] [%]	pest or weed control at 140 g/ha [19] [%]	pest or weed control at 140 g/ha [20] [%]	further results
O=C(O)c1nc(-c2ncc(Cl)c(C(F)F)c2Cl)ccc1Cl [F193, 3′,5,5′-Trichloro-4′-(difluoromethyl)-[2,2′-bipyridine]-6-carboxylic acid]	0 to 29	95 to 100	30 to 44	85 to 94	0 to 29	0 to 29	85 to 94	85 to 94	95 to 100	0 to 29	0 to 29	75 to 84	95 to 100	0 to 29	0 to 29	–	–	–	–	–	–
COC(=O)c1nc(-c2c(F)cc(Cl)cc2Cl)ccc1Cl [F62, Methyl 3-chloro-6-(2,4-dichloro-6-fluorophenyl) picolinate]	0 to 29	95 to 100	0 to 29	75 to 84	75 to 84	0 to 29	75 to 84	–	95 to 100	60 to 74	0 to 29	75 to 84	85 to 94	0 to 29	–	–	–	–	–	–	–
O=C(O)c1nc(-c2ccc(C(F)(F)F)c(Cl)c2)ccc1Cl [F314, 3-Chloro-6-(3-chloro-4-(trifluoromethyl)phenyl) picolinic acid]	–	–	–	–	–	–	–	0 to 29	95 to 100	0 to 29	0 to 29	0 to 29	75 to 84	0 to 29	0 to 29	0 to 29	45 to 59	75 to 84	30 to 44	0 to 29	pest or weed control at 140 g/ha [21]: 0 to 29%; pest or weed control at 140 g/ha [22]: 0 to 29%
COC(=O)c1nc(-c2ccc3occc3c2)c(F)cc1Cl [F188, Methyl 6-(benzofuran-5-yl)-3-chloro-5-fluoropicolinate]	0 to 29	0 to 29	0 to 29	60 to 74	45 to 59	0 to 29	30 to 44	0 to 29	30 to 44	0 to 29	0 to 29	0 to 29	0 to 29	0 to 29	0 to 29	–	–	–	–	–	–
COC(=O)c1nc(-c2cccc3c2OC(F)(F)O3)ccc1Cl [F242, Methyl 3-chloro-6-(2,2-difluorobenzo[d][1,3]dioxol-4-yl)picolinate]	–	–	–	–	–	–	–	0 to 29	0 to 29	0 to 29	0 to 29	0 to 29	75 to 84	0 to 29	0 to 29	0 to 29	0 to 29	0 to 29	60 to 74	0 to 29	pest or weed control at 140 g/ha [21]: 0 to 29%; pest or weed control at 140 g/ha [22]: 0 to 29%
O=C(O)c1nc(-c2ncc(Cl)cc2Cl)ccc1Cl [F195, 3′,5,5′-Trichloro-[2,2′-bipyridine]-6-carboxylic acid]	0 to 29	95 to 100	30 to 44	95 to 100	0 to 29	0 to 29	60 to 74	75 to 84	95 to 100	60 to 74	30 to 44	60 to 74	85 to 94	0 to 29	45 to 59	–	–	–	–	–	–
O=C(O)c1nc(-c2ccc(C(F)(F)F)nc2)ccc1Cl [F95, 5-Chloro-6′-(trifluoromethyl)-[2,3′-bipyridine]-6-carboxylic acid]	0 to 29	0 to 29	0 to 29	0 to 29	0 to 29	0 to 29	0 to 29	0 to 29	45 to 59	0 to 29	0 to 29	0 to 29	0 to 29	0 to 29	0 to 29	–	–	–	–	–	–
COC(=O)c1nc(-c2ccc(Cl)c(OC)c2F)ncc1Cl [F115, methyl 5-chloro-2-(4-chloro-2-fluoro-3-methoxyphenyl)pyrimidine-4-carboxylate]	0 to 29	0 to 29	0 to 29	0 to 29	60 to 74	0 to 29	0 to 29	0 to 29	30 to 44	–	0 to 29	0 to 29	0 to 29	0 to 29	0 to 29	–	–	–	–	–	–
COC(=O)c1nc(-c2ccc(C(F)(F)F)c(N)c2Cl)ccc1Cl [F212, Methyl 6-(3-amino-2-chloro-4-(trifluoromethyl)phenyl)-3-chloropicolinate]	–	–	–	–	–	–	–	75 to 84	95 to 100	60 to 74	0 to 29	60 to 74	60 to 74	0 to 29	0 to 29	0 to 29	85 to 94	30 to 44	95 to 100	60 to 74	pest or weed control at 140 g/ha [21]: 0 to 29%; pest or weed control at 140 g/ha [22]: 0 to 29%
C=Cc1c(C(F)(F)F)ccc(-c2ccc(Cl)c(C(=O)OC)n2)c1Cl [F137, methyl 3-chloro-6-(2-chloro-4-(trifluoromethyl)-3-vinylphenyl)picolinate]	0 to 29	60 to 74	0 to 29	75 to 84	0 to 29	0 to 29	30 to 44	0 to 29	95 to 100	0 to 29	0 to 29	0 to 29	60 to 74	0 to 29	0 to 29	–	–	–	–	–	–

Source: patent US20230017045A1, “PYRIDINE AND PYRIMIDINE CARBOXYLATE HERBICIDES AND METHODS OF USE THEREOF” (Dow AgroSciences LLC, priority 2017, published 2023)
